Experiments:
[1] = system: corn seedlings; assay: Greenhouse study of nitrapyrin as a biostimulant, shoot dry weight (biomass) of corn seedlings; assay type: in vivo; conditions: applied at lower concentrations/label rates than typically employed as nitrification inhibitor (equal to or lower than 45.4 grams of nitrapyrin per acre)
Protocol: Com seeds were sown in 3-liter pots filled with a peat-vermiculite-perlite potting mix. Plants were grown for a period of 14 days in a greenhouse under standard conditions (28/32° C. night/day temperatures, 16-hour photoperiod, 55% relative humidity, 800 uMol/m2/s light intensity). Seven days after planting, treatments were applied using a 3×3 factorial treatment design (3 nitrapyrin rates×3 fertilizer treatments), with 4 biological replications per treatment combination. Plants were arranged in a completely randomized layout on the greenhouse bench. Nitrapyrin rates were: 0.0 g/plant (acetonitrile only), 0.0005 g/plant and 0.00073 g/plant, with each treatment unit dissolved in 5 mL of acetonitrile. Fertilizer treatments were: No fertilizer (water only), 15-5-15, and 6-24-6. Fertilizers were delivered at a rate of 100 ppm nitrogen, 3 times/week beginning on day 7 through day 14. Nitrapyrin treatments were given only once on day 7. Plants were monitored for signs of phytotoxicity during the experiment. On day 14, plants were harvested and dried in a forced-air oven. Dried plants were weighed individually for biomass. For results see FIG. 1.
A second experiment was performed with the same execution as described above, but with additional treatment groups and additional growing time (21 days). […]

[2] = compositions and/or formulations containing high amounts of water; cited from earlier work

For Clc1cccc(C(Cl)(Cl)Cl)n1 [nitrapyrin, Nitrapyrin], the “biostimulant properties (improvement in plant growth and/or vigor)” value [1] is listed as “can exhibit biostimulant properties” and the degradation of nitrapyrin [2] is listed as “rapid degradation”.
